From patent US8076332B2, “N- (2-aminophenyl) benzamide derivative having urea structure” (Santen Pharmaceutical Co., Ltd., priority 2006, dated 2011) come the findings set out here.

The test system of the test is human trabecular meshwork cell line (TM-1 cells). Description: Test for evaluation of effect of morphological change on trabecular meshwork cells (cell shape index, CSI). It is filed as cell-based. The settings on record: final concentration 10 μM, incubation 24 hours, CSI=4π×(Cell Area)/(Cell Perimeter)^2, average per group, Control 0.730. How it is done:
1. Test for Evaluation of Effect of Morphological Change on Trabecular Meshwork Cells
As a method for evaluating a cellular morphological change, an evaluation system using the cell shape index (hereinafter referred to as “CSI”) as an index has been reported in The Journal of Clinical Investigation, 103, 1141-1150 (1999). Therefore, according to the method described in the above document, an effect of morphological change of the present compounds on trabecular meshwork cells was evaluated.
A human trabecular meshwork cell line (hereinafter referred to as “TM-1 cells”) reported in Investigative Opthalmology & Visual Science, 43, 151-161 (2002) was used.
Culture medium 1: A reagent was prepared by adding fetal bovine serum (10%), L-glutamine (2 mM), amphotericin B (2.5 μg/mL), and gentamicin (25 μg/mL) to Dulbecco's modified Eagle medium (hereinafter referred to as “D-MEM”).
Culture medium 2: Fetal bovine serum (3%), L-glutamine (2 mM), amphotericin B (2.5 μg/mL), and gentamicin (25 μg/mL) were added to D-MEM.
Cell staining liquid: A mixed liquid of Calcein-AM (16 μM) and Hoechst 33342 (40 μM) was prepared by diluting a Calcein-AM solution (cytoplasmic staining reagent, manufactured by Dojindo Laboratories) and a Hoechst 33342 solution (nuclear staining reagent, manufactured by Dojindo Laboratories) with D-MEM containing L-glutamine (2 mM), amphotericin B (2.5 μg/mL), and gentamicin (25 μg/mL).
TM-1 cells subcultured at 37° C. in a 8% carbon dioxide gas atmosphere were treated with a trypsin/EDTA solution (0.05% trypsin and 0.53 mM tetrasodium ethylenediaminetetraacetate) at 24 hours before performing a drug treatment mentioned below and seeded on a 96-well culture plate. The culture medium 1 was used for the subculture of the cells. The culture medium 2 was used for the cell culture after seeding the cells on the plate.
A test compound was dissolved in dimethyl sulfoxide, whereby a 5 mM solution was prepared. Then, the resulting solution was diluted with the culture medium 2, whereby a 200 μM test compound solution was prepared.
It has been reported that Y-27632 which is a Rho kinase inhibitor induces a morphological change in trabecular meshwork cells in Investigative Ophthalmology & Visual Science, 42, 137-144 (2001). Therefore, Y-27632 (produced according to the method described in WO 90/05723) was used as a positive control, and dissolved in dimethyl sulfoxide in the same manner as the test compound, whereby a 5 mM solution was prepared, and then, the resulting solution was diluted with the culture medium 2, whereby a 200 μM positive control compound solution was prepared.
1) To a 96-well culture plate, a solution of TM-1 cells adjusted to a cell density of […] was added in an amount of 95 μL (1.5×10^4 cells) per well.
2) Incubation was performed at 37° C. in a 8% carbon dioxide gas atmosphere for 24 hours.
3) The test compound solution or positive control compound solution was added in an amount of 5 μL per well (the final concentration of the test compound or positive control compound was 10 μM). As a control, the culture medium 2 containing dimethyl sulfoxide (4%) was added in an amount of 5 μL per well.
4) Incubation was performed at 37° C. in a 8% carbon dioxide gas atmosphere for 24 hours.
5) The cell staining liquid was added in an amount of 10 μL per well.
6) Incubation was performed at 37° C. in a 8% carbon dioxide gas atmosphere for 1 hour to stain the cells.
7) A 37% formaldehyde solution was added in an amount of 10 μL per well.
8) Incubation was performed at room temperature for 1 hour to fix the cells.
9) Washing with phosphate-buffered saline was performed.
10) Using Array Scan Vti HCS reader (manufactured by Cellomics), images of stained cells magnified with a 20 times objective lens were captured in 80 fields (10 fields×8 wells) per test compound addition group.
11) CSI was calculated for each cell and an average value was obtained for each test compound addition group. […]
With `CN(C)CCN(Cc1ccc(C(=O)Nc2ccccc2N)cc1)C(=O)Nc1ccccc1` [Compound 1-2, N-(2-Aminophenyl)-4-[1-(2-dimethylaminoerthyl)-3-phenyl-ureidomethyl]benzamide], the CSI was found to be 0.599.

In turn, `CN(C)CCN(Cc1ccc(C(=O)Nc2ccccc2N)cc1)C(=O)NCCc1ccccc1` [Compound 1-4, N-(2-Aminophenyl)-4-[1-(2-dimethylaminoethyl)-3-phenethylureidomethyl]benz-amide] showed a CSI of 0.545.

`CN(C)CCN(Cc1ccc(C(=O)Nc2ccccc2N)cc1)C(=O)NCc1ccccc1` [Compound 1-5, N-(2-Aminophenyl)-4-[3-benzyl-1-(2-dimethylaminoethyl)ureidomethyl]benzamide] registered a CSI of 0.636.

The molecule `Nc1ccccc1NC(=O)c1ccc(CN(CC(O)CO)C(=O)Nc2ccc3c(c2)CCC3)cc1` (stereo not shown) [Compound 1-16, N-(2-Aminophenyl)-4-[1-(2,3-dihydroxypropyl)-3-(indan-5-yl)ureidomethyl]benz-amide] registered a CSI of 0.616.

In the case of `CNCCN(Cc1ccc(C(=O)Nc2ccccc2N)cc1)C(=O)NC1CCCC1` [Compound 1-22, N-(2-Aminophenyl)-4-[3-cyclo-pentyl-1-(2-methylamino-ethyl)ureidomethyl]benz-amide], the CSI was 0.619.

The molecule `CNCCN(Cc1ccc(C(=O)Nc2ccccc2N)cc1)C(=O)Nc1ccc2c(c1)OCCO2` [Compound 1-23, N-(2-Aminophenyl)-4-[3-(2,3-dihydrobenzo[1,4]dioxin-6-yl)-1-(2-methylamino-ethyl)ureidomethyl]benzamide] yielded a CSI of 0.534.

On to `CN(C)CCCN(Cc1ccc(C(=O)Nc2ccccc2N)cc1)C(=O)NCCc1ccccc1` [Compound 1-28, N-(2-Aminophenyl)-4-[1-(3-dimethylaminopropyl)-3-phenylethylureidomethyl]benz-amide], for which the CSI is given as 0.514.

`CN(C)c1ccc(NC(=O)N(CCCN2CCOCC2)Cc2ccc(C(=O)Nc3ccccc3N)cc2)cc1` [Compound 1-31, N-(2-Aminophenyl)-4-[3-(4-dimethylaminophenyl)-1-[3-(morpholin-4-yl)propyl]ureidomethyl]benzamide] yielded a CSI of 0.632.

Molecule `Nc1ccccc1NC(=O)c1ccc(CN(CC2CCNCC2)C(=O)Nc2ccc(Cl)cc2)cc1` [Compound 1-34, N-(2-Aminophenyl)-4-[3-(4-chlorophenyl)-1-(piperidin-4-ylmethyl)ureidomethyl] benzamide] gave a CSI of 0.681.

`COc1ccc(NC(=O)N(Cc2ccc(C(=O)Nc3ccccc3N)cc2)CC(C)(C)CN(C)C)cc1OC` [Compound 1-36, N-(2-Aminophenyl)-4-[3-(3,4-dimethoxyphenyl)-1-(3-dimethylamino-2,2-dimethyl-propyl)ureidomethyl]benzamide] came in with a CSI of 0.539.

For the molecule `CN(C)CC(C)(C)CN(Cc1ccc(C(=O)Nc2ccccc2N)cc1)C(=O)Nc1ccc(CC#N)cc1` [Compound 1-38, N-(2-Aminophenyl)-4-[3-(4-cyanomethylphenyl)-1-(3-dimethylamino-2,2-dimethyl-propyl)ureidomethyl]benz-amide], the CSI worked out at 0.616.

With `NCCCN(Cc1ccc(C(=O)Nc2ccccc2N)cc1)C(=O)Nc1ccc2c(c1)OCCO2` [Compound 1-39, N-(2-Aminophenyl)-4-[1-(3-aminopropyl)-3-(2,3-di-hydrobenzo[1,4]dioxin-6-yl)ureidomethyl]benzamide], the CSI amounted to 0.615.

With `CN(C)c1ccc(NC(=O)N(CCCN2CCCC2=O)Cc2ccc(C(=O)Nc3ccccc3N)cc2)cc1` [Compound 1-43, N-(2-Aminophenyl)-4-[3-(4-dimethylaminophenyl)-1-[3-(pyrrolidin-2-on-1-yl)propyl]ureidomethyl]benzamide], the CSI is given as 0.679.

The molecule `COC(=O)c1ccc(NC(=O)N(CCCN(C)C)Cc2ccc(C(=O)Nc3ccccc3N)cc2)cc1` [Compound 1-46, N-(2-aminophenyl)-4-[1-(3-dimethylaminopropyl)-3-(4-methoxycarbonylphenyl)ureidomethyl]benzamide] came in with a CSI of 0.581.

As to `CN(C)c1ccc(NC(=O)N(CCO)Cc2ccc(C(=O)Nc3ccccc3N)cc2)cc1` [Compound 1-47, N-(2-Aminophenyl)-4-[3-(4-dimethylaminophenyl)-1-(2-hydroxyethyol)ureidomethyl] benzamide], the CSI was found to be 0.613.

For `Nc1ccccc1NC(=O)c1ccc(CN(CCO)C(=O)NCCc2ccccc2)cc1` [Compound 1-49, N-(2-Aminophenyl)-4-[1-(2-hydroxyethyl)-3-phenylethyl-ureidomethyl]benzamide], the CSI is 0.630.

For `CCN1CCCC1CN(Cc1ccc(C(=O)Nc2ccccc2N)cc1)C(=O)Nc1ccc2c(c1)OCCO2` (stereo not shown) [Compound 1-50, N-(2-Aminophenyl)-4-[3-(2,3-dihydrobenzo[1,4]dioxin-6-yl)-1-(1-ethylpyrrolidin-2-ylmethyl)ureidomethyl] benzamide], the CSI came to 0.617.

As for `CN(C)CCCCN(Cc1ccc(C(=O)Nc2ccccc2N)cc1)C(=O)Nc1ccc(N(C)C)cc1` [Compound 1-53, N-(2-Aminophenyl)-4-[1-(4-dimethylaminobutyl)-3-(4-dimethylaminoiphenyl)ureido-methyl]benzamide], the CSI is on record as 0.538.

`COc1cccc(NC(=O)N(CCCN2CCOCC2)Cc2ccc(C(=O)Nc3ccccc3N)cc2)c1` [Compound 1-58, N-(2-Aminophenyl)-4-[3-(3-methoxyphenyl)-1-[3-(mor-pholin-4-yl)propyl]ureido-methyl]benzamide] had a CSI of 0.610.

Regarding `Nc1ccccc1NC(=O)c1ccc(CN(CCCN2CCOCC2)C(=O)Nc2ccc(OC(F)F)cc2)cc1` [Compound 1-60, N-(2-Aminophenyl)-4-[3-(4-difluoromethoxyphenyl)-1-[3-(morpholin-4-yl)propyl]ureidomethyl]benzamide], the CSI was 0.608.

Regarding `Nc1ccc(NC(=O)N(CCCN2CCOCC2)Cc2ccc(C(=O)Nc3ccccc3N)cc2)cc1` [Compound 1-66, N-(2-Aminophenyl)-4-[3-(4-aminophenyl)-1-[3-(mor-pholin-4-yl)propyl]ureidomethyl] benzamide], the CSI is 0.624.

Take `CN(C)CCCN(Cc1ccc(C(=O)Nc2ccccc2N)cc1)C(=O)Nc1cccc(OCc2ccccc2)c1` [Compound 1-76, N-(2-aminophenyl)-4-[3-(3-benzyloxyphenyl)-1-(3-dimethylaminopropyl)ureidomethyl]benzamide]: the CSI turned out to be 0.649.

In the case of `CN1CCN(CCN(Cc2ccc(C(=O)Nc3ccccc3N)cc2)C(=O)Nc2ccc3c(c2)OCCO3)CC1` [Compound 1-94, N-(2-Aminophenyl)-4-[3-(2,3-dihydrobenzo[1,4]dioxin-6-yl)-1-[2-(4-methylpiper-azin-1-yl)ethyl]ureidomethyl] benzamide], the CSI amounted to 0.595.

`CN1CCCC1CCN(Cc1ccc(C(=O)Nc2ccccc2N)cc1)C(=O)Nc1ccc(F)c(F)c1` (stereo not shown) [Compound 1-97, N-(2-Aminophenyl)-4-[3-(3,4-difluorophenyl)-1-[2-(1-methylpyrrolidin-2-yl)-ethyl]ureidomethyl]benzamide]: the CSI was 0.595.

Molecule `CN(C)CCCN(Cc1ccc(C(=O)Nc2ccccc2N)cc1)C(=O)Nc1ccc(F)c([N+](=O)[O-])c1` [Compound 1-102, N-(2-Aminophenyl)-4-[1-(3-dimethylaminopropyl)-3-(4-fluoro-3-nitrophenyl)ureido-methyl]benzamide] showed a CSI of 0.538.
